Columns and labels:
[1] = system: anaesthetised rabbit model of sexual arousal; experiment: Enhancement of VIP-induced increases in vaginal blood flow, anaesthetised rabbit model; format: in vivo; conditions: for effect on VIP-induced increases in vaginal blood flow: at clinically relevant doses
From the text: (§1) A ventral midline incision was made, at the caudal end of the pubis, to expose the pubic area. Connective tissue was removed to expose the tunica of the clitoris, ensuring that the wall was free from small blood vessels. The external vaginal wall was also exposed by removing any connective tissue. One laser Doppler flow probe was inserted 3 cm into the vagina, so that half the probe shaft was still visible. A second probe was positioned so that it lay just above the external clitoral wall. The position of these probes was then adjusted until a signal was obtained. A second probe was placed just above the surface of a blood vessel on the external vaginal wall. Both probes were clamped in position.
(§2) Vaginal and clitoral blood flow was recorded either as numbers directly from the Flowmeter using Po-ne-mah data acquisition software (Ponemah Physiology Platform, Gould Instrument Systems Inc), or indirectly from Gould chart recorder trace. Calibration was set at the beginning of the experiment (0-125 ml/min/100 g tissue).
An initial infusion of Hepsaline (50UI/ml) was infused to act as a negative control.
(§3) NEP (Neutral Endopeptidase EC3.4.24.11; Sequence No. 1) inhibitors, phosphodiesterase type 5 (PDE5) inhibitors and NPY Y1 antagonists were made up in saline or 5% glucose solution (200 μl 50% glucose in 1.8 ml water for injection). PDEcAMP inhibitors were dissolved in a 40% ethanol solution (200 μl 50% glucose in 1.8 ml water/ethanol for injection).

[2] = system: anaesthetised rabbit model of sexual arousal; experiment: Enhancement of pelvic nerve stimulated (PNS) increases in vaginal blood flow, anaesthetised rabbit model; format: in vivo; conditions: for effect on pelvic nerve stimulated increases in vaginal blood flow: at clinically relevant doses
From the text: (§4) A ventral midline incision was made into the abdominal cavity. The incision was about 5 cm in length just above the pubis. The fat and muscle was bluntly dissected away to reveal the hypogastric nerve which runs down the body cavity. It was essential to keep close to the side curve of the pubis wall in order to avoid damaging the femoral vein and artery which lie above the pubis. The sciatic and pelvic nerves lie deeper and were located after further dissection on the dorsal side of the rabbit. Once the sciatic nerve is identified, the pelvic nerve was easily located. The term pelvic nerve is loosely applied; anatomy books on the subject fail to identify the nerves in sufficient detail. However, stimulation of the nerve causes an increase in vaginal and clitoral blood flow, and innervation of the pelvic region. The pelvic nerve was freed away from surrounding tissue and a Harvard bipolar stimulating electrode was placed around the nerve. The nerve was slightly lifted to give some tension, then the electrode was secured in position. Approximately 1 ml of light paraffin oil was placed around the nerve and electrode. This acts as a protective lubricant to the nerve and prevents blood contamination of the electrode. The electrode was connected to a Grass S88 Stimulator. The pelvic nerve was stimulated using the following parameters: −5V, pulse width 0.5 ms, duration of stimulus 10 seconds and a frequency range of 2 to 16 Hz. Reproducible responses were obtained when the nerve was stimulated every 15-20 minutes.
A frequency response curve was determined at the start of each experiment in order to determine the optimum frequency to use as a sub-maximal response, normally 4 Hz. The compound(s) to be tested were infused, via the femoral vein, using a Harvard 22 infusion pump allowing a continuous 15 minute stimulation cycle.
as §1, §2, §3

isolated rabbit vagina [3] = experiment: Enhancement of VIP-induced relaxation of precontracted isolated rabbit vagina by test agents; format: cell-based; conditions: for Percentage enhancement of VIP(Sequence No. 8)-induced relaxation: PDE inhibitor at selective dose, isolated rabbit vagina, 1 μM phenylephrine; for effect on VIP-induced and nerve-mediated relaxations of isolated tissue: at clinically relevant doses
Experimental: (§5) 3.7 (a). Rabbit vagina in vitro preparation:—Female New Zealand white rabbits (2.0-3.0 kg) were killed by cervical dislocation. The abdominal cavity was opened and the vagina excised. Tissue strips were mounted longitudinally in Wesley Co. 5 ml silanised organ chambers with braided silk sutures (6/0 gauge) at an initial resting tension of 1.5 g in Krebs bicarbonate buffer maintained at 37° C. and gassed with 95%O2/5%CO2. The upper ligature of each tissue strip was attached to a 10 g capacity force-displacement transducer and changes in isometric force were measured and recorded using a DART in vitro data capture system. Tissues were allowed to equilibrate for 1.5 hours and were regularly washed with Krebs.
(§6) Each tissue was contracted using 1 μM bath concentration of phenylephrine. […] Tissues then received either a test agent (eg NEP or PDE inhibitor) or DMSO vehicle (time matched control).
(§7) For the purpose of curve fitting the minimum relaxation response was constrained to 0% and the maximum relaxation response was allowed to free fit.

isolated rabbit vagina [4] = experiment: Electrical field stimulated (EFS) relaxation of isolated rabbit vagina; format: cell-based
Experimental: Rabbit vaginal strips were prepared as described in Section 3.7 (a). The tissue strips were mounted between two platinum electrodes placed at the top and bottom of the organ chamber approximately 4 cm apart. Each tissue was contracted using 1 μM bath concentration of phenylephrine. When the contractile response reached a stable plateau (15 minutes), the tissues underwent a pre-treatment electrical field stimulated (EFS) induced relaxation curve. This was performed between 40-60 volts using sequential frequencies of 2, 4, 8 and 16 Hz delivered as 10 second trains of 0.5 milli second pulse width. The tissues were allowed to return to base line pre-contractile tension between each frequency (5 minutes) and the size of the relaxation response recorded.
After completion of the pre-treatment EFS response curve, all tissues were washed for 15 minutes, allowing the tissues to return to the baseline tension. Tissues then received either a test agent (eg NEP or PDE inhibitor, nitric oxide synthase [NOS] inhibitor) or DMSO vehicle (time matched control). Tissues were re-contracted with phenylephrine (1 μM) 15 minutes after the addition of compound or vehicle and an EFS-induced relaxation response curve determined as described above. […]

[5] = system: anaesthetised rabbit model of sexual arousal; experiment: Enhancement of pelvic nerve stimulated increases in clitoral blood flow, anaesthetised rabbit model; format: in vivo
From the text: as §4
A frequency response curve was determined at the start of each experiment in order to determine the optimum frequency to use as a sub-maximal response, normally 4 Hz. The compound(s) to be tested were infused, via the femoral vein, using a Harvard 22 infusion pump allowing a continuous 15 minute stimulation cycle. […]
Vaginal and clitoral blood flow was recorded either as numbers directly from the Flowmeter using Po-ne-mah data acquisition software (Ponemah Physiology Platform, Gould Instrument Systems Inc), or indirectly from Gould chart recorder trace. […]

isolated rabbit vagina [6] = experiment: Relaxation of precontracted (1 μM phenylephrine) isolated rabbit vaginal strips; format: cell-based; conditions: Oryctolagus cuniculus, precontracted with 1 μM phenylephrine
Experimental: as §5, §6, §7

[7] = system: anaesthetised rabbit model of sexual arousal; experiment: Increase in clitoral blood flow after iv infusion of vasoactive agents, anaesthetised rabbit model; format: in vivo; conditions: forskolin 40 nmol/kg iv
From the text: as §1, §2

COc1ccc(Cc2nc3c(ncn3C(CCCc3ccccc3)C(C)=O)c(=O)[nH]2)cc1OC (centres unmarked) [FII, 9-(1-acetyl-4-phenylbutyl)-2-[(3,4-dimethoxyphenyl)methyl]-1,9-dihydro-6H-purin-6-one]
enhancement of peak increase in blood flow induced by VIP-stimulation ([1]; 200 μg/kg): circa 15±3% | enhancement of duration of VIP-induced increases in peak vaginal blood flow ([1]; VIP 60 μg/kg, measured at 50% amplitude): over 100% | effect on VIP-induced increases in vaginal blood flow [1]: enhances | effect on VIP-induced enhanced vaginal blood flow ([1]; inhibitor 25 μg/kg iv bolus, VIP 60 μg/kg iv bolus): potentiates the duration | enhancement of peak increase in blood flow induced by pelvic nerve stimulation ([2]; 200 μg/kg, 4 Hz): circa 15±3% | enhancement of peak increase in PNS vaginal blood flow ([2]; 500 μg/kg iv, 4 Hz): 86.8±21.9% | effect on pelvic nerve stimulated increases in vaginal blood flow [2]: enhances | Percentage enhancement of VIP(Sequence No. 8)-induced relaxation (isolated rabbit vagina [3]): 130% | potentiation of VIP EC50 values (isolated rabbit vagina [3]; inhibitor at 8 nM): 130%

Cc1nc(O)c(C#N)cc1-c1ccncc1 [FIII, Milrinone]
Percentage enhancement of VIP(Sequence No. 8)-induced relaxation (isolated rabbit vagina [3]): 220% | potentiation of VIP EC50 values (isolated rabbit vagina [3]; inhibitor at 3.4 μM): 220%

COc1ccc(C2CNC(=O)C2)cc1OC1CCCC1 (centres unmarked) [FIV, Rolipram]
Percentage enhancement of VIP(Sequence No. 8)-induced relaxation (isolated rabbit vagina [3]): 160% | potentiation of VIP EC50 values (isolated rabbit vagina [3]; inhibitor at 686 nM): 160%

C=CCC(CC1(C(=O)NC2CCCC(C(=O)OCC)C2)CCCC1)C(=O)O (centres unmarked) [FV, cyclohexanecarboxylic acid, 3-[[[1-(2-carboxy-4-pentenyl)cyclopentyl]carbonyl]amino]-,1-ethyl ester]
effect on VIP-induced increases in vaginal blood flow [1]: enhance | effect on pelvic nerve stimulated increases in vaginal blood flow [2]: enhance | effect on VIP-induced and nerve-mediated relaxations of isolated tissue (isolated rabbit vagina [3]): enhance

C=CCC(CC1(C(=O)NC2CCCC(C(=O)O)C2)CCCC1)C(=O)O (centres unmarked) [FVI, cyclohexanecarboxylic acid, 3-[[[1-(2-carboxy-4-pentenyl)cyclopentyl]carbonyl]amino]-]
effect on non-nitric oxide NANC relaxation induced by EFS (isolated rabbit vagina [4]; 1 μM): enhances | increase in duration of VIP-induced elevation of vaginal blood flow ([1]; VIP dose producing maximal flow increases): circa 80% | duration of VIP-induced elevation in presence of inhibitor ([1]; VIP dose producing maximal flow increases, 11 minutes without inhibitor): 20 min | effect on VIP-induced increases in vaginal blood flow [1]: enhance | effect on VIP-induced enhanced vaginal blood flow ([1]; maximal VIP 60 μg/kg): only potentiate the duration | effect on VIP-induced enhanced vaginal blood flow ([1]; submaximal VIP 6.0 μg/kg): both potentiates the amplitude and prolongs the duration | potentiation of peak VIP-induced increase in vaginal blood flow ([1]; submaximal VIP 6.0 μg/kg): 95±6% | prolongation of duration of VIP-induced increase in vaginal blood flow ([1]; submaximal VIP 6.0 μg/kg): circa 140% | duration of VIP-induced increase in presence of inhibitor ([1]; submaximal VIP 6.0 μg/kg, 7 minutes without inhibitor): > 17 min | enhancement of peak increase in PNS vaginal blood flow ([2]; 0.1 mg/kg iv, submaximal stimulation 4 Hz): 35.0±7.6% | enhancement of peak increase in PNS vaginal blood flow ([2]; 0.3 mg/kg iv, submaximal stimulation 4 Hz, listed as NEP inhibitor): 40% | effect on pelvic nerve stimulated increases in vaginal blood flow [2]: enhance | maximal enhancement of peak increase in PNS vaginal blood flow (up to) ([2]; compared to time matched control increases): up to 53% | effect on basal (unstimulated) vaginal blood flow ([2]; no pelvic nerve stimulation): no effect | enhancement of peak increase in PNS clitoral blood flow ([5]; 1.0 mg/kg iv, 4 Hz): 131% | maximal enhancement of peak increase in PNS clitoral blood flow (up to) ([5]; compared to vehicle control increases): up to 131% | effect on basal (unstimulated) clitoral blood flow ([5]; no pelvic nerve stimulation): no effect | effect on VIP-induced and nerve-mediated relaxations of isolated tissue (isolated rabbit vagina [3]): enhance

NC(=NCCC[C@H](N)C(=O)O)N[N+](=O)[O-] [L-NOARG]
inhibition of EFS-induced relaxations (isolated rabbit vagina [4]; 300 μM): 50%

C=C[C@@]1(C)CC(=O)[C@]2(O)[C@@]3(C)[C@@H](O)CCC(C)(C)[C@@H]3[C@H](O)[C@H](OC(C)=O)[C@@]2(C)O1 [forskolin]
IC50 (isolated rabbit vagina [6]; FIG. 4c): ~0.3 µM | EC50 (isolated rabbit vagina [6]; read-out: EC50 for relaxation in isolated vaginal tissue): 0.32 ± 0.02 µM | increase in clitoral blood flow [7]: 156%

Source: patent publication US6734186B1, “Compounds for the treatment of female sexual dysfunction” (Pfizer Inc., priority 1999, dated 2004)
